Experimental data reported in publication PMC12040169 (PLOS Biology, 2025).

Test: in vitro
Settings: human, hela cells, % viability

| Structure (SMILES) | viability at 28.5 h, 10 µM [%] |
| --- | --- |
| Cc1cc2c(N3CCCC(NS(C)(=O)=O)C3)nccc2o1 (stereo not drawn) [CBK306464] | 93.4 |
| CC(C)(C)OC(=O)N1CCN(Cc2nc(-c3ccccc3)no2)CC1 [CBK306465] | 99.8 |
| COc1ccccc1CN(C)C(C)C(=O)Nc1sccc1C(N)=O (stereo not drawn) [CBK306466] | 109 |
| CSCCN(C)C(=O)c1nnn(Cc2ccc(F)cc2F)c1C [CBK306468] | 93.2 |
| COCC(C)NC(=O)c1cc(-c2cccs2)nc2onc(C)c12 (stereo not drawn) [CBK306473] | 104 |
| CC(NC(=O)N1CCSCC1)c1cccc(Br)c1 (stereo not drawn) [CBK306475] | 86.2 |
| CCC(=O)Nc1ccc(-c2csc(N3CCCC(C)C3)n2)cc1 (stereo not drawn) [CBK306478] | 83.3 |
| CCNC(=O)CN(CC)S(=O)(=O)c1cccc(C#N)c1 [CBK306481] | 90.1 |
| CCCn1c(SCC(=O)N2CCOCC2)nc2cc(Cl)ccc2c1=O [CBK306482] | 97.6 |
| COCC1(C)NC(=O)N(Cc2nn(-c3ccccc3)c3c2CCC3)C1=O (stereo not drawn) [CBK306483] | 88.8 |
| CCc1cc(=O)[nH]c(-c2ccc(N(C)CC(C)O)nc2)n1 (stereo not drawn) [CBK306484] | 88.4 |
| O=C(NS(=O)(=O)c1cccc(-c2nnco2)c1)C1C2C3CCC(C3)C12 (stereo not drawn) [CBK306488] | 89 |
| CCC(=O)Nc1ccc(-c2csc(N3CCC(C)CC3)n2)cc1 [CBK306490] | 111 |
| CC(C)(C)C(O)CNc1ncnc2ccc(S(C)(=O)=O)cc12 (stereo not drawn) [CBK306494] | 76.8 |
| CCC(CC)CNc1ncnc2ccc(S(C)(=O)=O)cc12 [CBK306495] | 90.9 |
| COCc1nc(C)c(C(=O)NC2CCCN(c3ccn(C)n3)C2=O)s1 (stereo not drawn) [CBK306497] | 92.2 |
| CC1Cc2ccccc2N1CCNC(=O)Cc1cn2ccsc2n1 (stereo not drawn) [CBK306499] | 87.6 |
| Cc1c(C(=O)N(C)Cc2nc3ccccc3s2)nnn1C1CCNCC1 [CBK306501C] | 85.9 |
| CCOc1ccc(-c2ccnc(C)n2)cc1C(=O)O [CBK306505] | 104 |
| O=C(O)CCn1cc(CN2CCOc3ccccc3C2)cn1 [CBK306507] | 101 |
| Cc1cc(=O)c2ccccc2n1CC(=O)N1CCNC(=O)C1C (stereo not drawn) [CBK306511] | 109 |
| COc1ccc2c(c1)cc(C(=O)N1CCCn3cncc3C1)n2C [CBK306516] | 96.1 |

| Structure (SMILES) | viability at 28.5 h, 10 µM [%] |
| --- | --- |
| Cn1ncc(N2CCC(CNC(=O)COc3ccc(Cl)cc3)C2)cc1=O (stereo not drawn) [CBK306517] | 79 |
| CSc1nnc(CC2CCN(C(=O)Cn3nnnc3N)CC2)n1C [CBK306520] | 97.6 |
| O=C(c1ccc(NCCCCO)nc1)N1CCC(N2CCOCC2)CC1 [CBK306521] | 96 |
| CN1CC(c2ccccc2)CC2(CCN(CCCn3cnnn3)CC2)C1 (stereo not drawn) [CBK306522] | 95 |
| CCn1c(C)cc(C(=O)NC2CCN(c3ncccc3C#N)CC2)c1C [CBK306524] | 87.8 |
| CCC(NC(=O)Nc1cc(N2CCOCC2)ccc1Cl)c1nc(C)no1 (stereo not drawn) [CBK306526] | 87.9 |
| Cc1cccc(=O)n1CCC(=O)N1CCCCC1CN1CCOCC1 (stereo not drawn) [CBK306528] | 109 |
| COCCN(Cc1cnn(C)c1)C(=O)Nc1cccc2nc(C)ccc12 [CBK306529] | 106 |
| Cc1cnc(C)c(N2CCN(C(=O)NCCSc3nncn3C)CC2)n1 [CBK306531] | 92.9 |
| Cc1cc(O)n2nc(CC(=O)NCCCn3c(C)cccc3=O)nc2n1 [CBK306532] | 97.1 |
| CC(C)c1cc(C(=O)N2CCNC(c3ccccc3)C2)nc2ncnn12 (stereo not drawn) [CBK306533] | 91.9 |
| Cc1nc(C)c(C(=O)Nc2nn(C)c3cccc(N4CCOCC4)c23)o1 [CBK306534] | 83.8 |
| CCn1c(CC2CCN(C(=O)CCCn3cnnn3)CC2)nn(C)c1=O [CBK306537] | 102 |
| CCCOC1CCCN(C(=O)c2ccc(-c3ccc(Cl)cn3)cc2)C1 (stereo not drawn) [CBK306540] | 89.5 |
| COC1CCCN(Cc2cncn2C2CCCCC2)C1 (stereo not drawn) [CBK306542] | 101 |
| Cc1ccccc1N1CCC(CNC(=O)CCc2ccnn2C)C1 (stereo not drawn) [CBK306543] | 89 |
| CC(C)CC(NC(=O)N1CCOc2ccc(Cl)cc2C1)c1ncnn1C (stereo not drawn) [CBK306544] | 115 |
| Cc1cccn2c(CN3CCCC(O)C3)c(C(=O)N3CCOCC3)nc12 (stereo not drawn) [CBK306545] | 72.5 |
| Cc1cccn2c(CN3CCC(O)CC3)c(C(=O)N3CCOCC3)nc12 [CBK306546] | 104 |
| O=C(Cc1ccsc1)N1CCn2nc(C(O)Cc3ccccc3)cc2C1 (stereo not drawn) [CBK306547] | 95.9 |
| CCCc1nc(C(=O)NC2CC(=O)N(CCc3ccc(F)cc3)C2)cs1 (stereo not drawn) [CBK306548] | 105 |
| Cc1cc(C)n(CCCC(=O)N2CCOCC(O)(CN3CCCC3)C2)n1 (stereo not drawn) [CBK306550] | 101 |

| Structure (SMILES) | viability at 28.5 h, 10 µM [%] |
| --- | --- |
| CC(NC(=O)CCc1cc2n(n1)CCNC2)c1cn2ccsc2n1 (stereo not drawn) [CBK306551] | 91.2 |
| CC(C)c1cc(C(=O)N[C@@H]2CCOC[C@H]2Oc2ccc(CO)cc2)on1 [CBK306554] | 101 |
| COC(CNC(=O)N(C)Cc1nncn1C(C)C)c1cccs1 (stereo not drawn) [CBK306556] | 90.8 |
| Cc1cc(C(F)(F)F)n2ncc(C(=O)N3CCCC3c3ccco3)c2n1 (stereo not drawn) [CBK306557] | 93.5 |
| OC1(CN2CCCC2)COCCN(c2nnc(-c3ccccc3)s2)C1 (stereo not drawn) [CBK306558] | 97.5 |
| N#Cc1ccnc(N2CCC3(CCCN(CC4CCCCC4)C3=O)C2)c1 (stereo not drawn) [CBK306561] | 96.9 |
| CCn1c(=O)oc2cc(NC(=O)NCCN3CCCCC3CO)ccc21 (stereo not drawn) [CBK306565] | 107 |
| CC(=O)Nc1ccc(CNC(=O)CN(C)CC2CCCCO2)cc1 (stereo not drawn) [CBK306567] | 89.6 |
| CCCn1cnnc1C(C)NS(=O)(=O)c1cccc(C(=O)N2CCC2)c1 (stereo not drawn) [CBK306569] | 103 |
| CC(C)c1cc(C(=O)N2CC(N3CCOCC3)C2)nc2ncnn12 [CBK306572] | 86.9 |
| OC1CC(c2cc(NCCc3nc4ccccc4o3)ncn2)C1 (stereo not drawn) [CBK306573] | 99.9 |
| Cc1cc(C(=O)NCc2cccnc2N(C)C2CCCCC2)nn1C [CBK306577] | 69.6 |
| Cc1cccc(OCC2CCCN(C(=O)C3(Cn4cccn4)CC3)C2)c1 (stereo not drawn) [CBK306578] | 102 |
| CC(C)c1cc(C(=O)N(Cc2ccccn2)CC2CCCO2)on1 (stereo not drawn) [CBK306579] | 95.3 |
| Cc1cc(CN(C)c2nccc(N3CCN[C@H]4CS(=O)(=O)C[C@H]43)n2)no1 [CBK306580] | 109 |
| COc1cccc2ncn(CCNS(C)(=O)=O)c(=O)c12 [CBK306583] | 81 |
| Cc1oc2c(c1C(=O)NCCSc1nncn1C)C(=O)CCC2 [CBK306589] | 92.5 |
| O=C(O)C1(Oc2ccc3ncccc3c2)CCN(C2CCCCC2)CC1 [CBK306591] | 92.4 |
| Cn1nnnc1SCCNC(=O)Nc1cccc(N2CCOC2=O)c1 [CBK306593] | 84.4 |
| CC(Cn1cncn1)NS(=O)(=O)c1cccc(C(=O)N2CCCCC2)c1 (stereo not drawn) [CBK306594] | 86.7 |
| CCC(O)Cn1nc(CCSC)nc1-c1cc(=O)n(C)c2ccccc12 (stereo not drawn) [CBK306596] | 83.6 |
| CCCN1CC(NS(=O)(=O)c2ccnn2CCC)CC1=O (stereo not drawn) [CBK306598] | 92.9 |
